The values below come from PubChem BioAssay AID179 (DTP/NCI, 2004).

Usually EC50 stands for the midpoint of the concentration-response curve. The term IC50 denotes the point on the concentration scale where inhibition reaches its midpoint. Lower therefore signals greater potency in that assay.

The source made the active and inactive calls.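 How the source made its calls: active means compounds giving half or more protection of infected cells from virus-caused growth loss, again on retest; inactive means the rest.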

The subject of this assay is CEM cells HIV-1 protection, formazan growth assay. Put plainly: NCI AIDS Antiviral Assay. To be noted: for IC50: measured here: growth of uninfected CEM cells. The protocol: The ability of compounds to protect human CEM cells from HIV-1 infection is measured as a screen for new compounds capable of inhibiting the HIV virus. Five concentrations of drug were tested on uninfected and infected cells and cell growth was measured using a soluble formazan assay. […] Compounds that provided at least 50% protection were retested. Compounds that provided at least 50% protection on retest were listed as moderately active. Compounds that reproducibly provided 100% protection were listed as confirmed active. […] Note that the inability to provide protection could be due to toxicity.

Turning to `Cc1cc2n(n1)C(C)(C)C(=O)Nc1ccc(Cl)cc1-2`, the EC50 was > 49 µM and the IC50 came to 33.9 µM. The corresponding values for `Cc1cc(C)nc(NS(=O)(=O)c2ccc(Nc3c4ccccc4nc4c(C(=O)NCCCN(CCO)CCO)cccc34)cc2)n1` are > 200 µM and 6.46 µM. Taken in the same sequence, the figures for `Cc1cc(N(CCC#N)CCC#N)ccc1/C(N=Nc1ccc([N+](=O)[O-])cc1)=N\NC(=O)c1cc(Cl)ccc1C(=O)c1ccccc1` were > 200 µM and 11.2 µM.

Regarding `CSc1nncc2[nH]cnc12`, the EC50 was > 200 µM and the IC50 is > 200 µM. As to `COCCCN1CC(=O)N2Cc3ccccc3CN2C(=O)C1`, the outcome was inactive and the IC50 was > 200 µM. On to `N#Cc1c(=O)[nH]c(=O)n2c1[nH]c1ccccc12`, for which the EC50 was > 200 µM and the half-maximal inhibitory concentration (IC50) was > 200 µM. As for `CS(=O)(=O)CC(Cc1ccccc1)C(=O)O` (centres undefined), the result was inactive. As for `Cc1cc(Br)cc(C)c1NC(=O)C(=O)C(C(=O)c1ccncc1)C1OC(=O)c2ccccc21` (centres undefined), the EC50 was > 339 µM and the half-maximal inhibitory concentration (IC50) was > 339 µM. As to `CC#N.CC#N.COC(=O)[C@H]1COC(=O)[N-]1.COC(=O)[C@H]1COC(=O)[N-]1.COC(=O)[C@H]1COC(=O)[N-]1.COC(=O)[C@H]1COC(=O)[N-]1.[Rh+2].[Rh+2]`, the EC50 is > 200 µM and the half-maximal inhibitory concentration (IC50) was > 200 µM. On to `COc1ccccc1NC(=O)C(C#N)=C(SC)SC`, for which the EC50 is > 200 µM and the IC50 worked out at 8.91 µM. The corresponding values for `Cn1cnc(N)c1S(=O)(=O)Nc1ccccc1Cl` are > 562 µM and > 562 µM. As for `COC(=O)c1sc(C(=O)OC)c2c1CSC2`, the result was inactive. `COC(=O)[C@H](Cc1c[nH]c2ccccc12)NP(=O)(O)CCC1OC(n2cc(C)c(=O)[nH]c2=O)CC1N=[N+]=[N-]` (some centres undefined): the EC50 is > 200 µM and the IC50 was > 200 µM.

In the case of `CC1(C)CNC[C@@](C)(O)C(=O)[N-]C(C)(C)CNC[C@@](C)(O)C(=O)[N-]1.[Ni+2]`, the EC50 is > 200 µM and the IC50 amounted to 72.4 µM. Consider `CC(=O)Oc1ccc(O)c(O)c1C/C=C(\C)CC/C=C(\C)CC/C=C(\C)CCC=C(C)C`, for which the outcome was inactive.

For `CN(C)CC1CCC/C1=N/OC(=O)c1ccccc1` (centres undefined), the result was inactive.

Consider `Cc1ccccc1NC(=O)C(=O)CC(=O)C1CCOC1=O` (centres undefined), for which the result was inactive. As to `O=C(O)c1cc(=O)c2cc3c(cc2o1)OCc1ccccc1-3`, the EC50 was > 93.3 µM and the IC50 was > 93.3 µM.

Turning to `CCc1n[nH]c(=O)n1N1C(=O)C2CC=CCC2C1=O` (centres undefined), the EC50 is > 200 µM and the IC50 was > 200 µM.

With `NC(=O)NN=C1Cc2ccccc2C1`, the EC50 is > 200 µM and the IC50 was > 200 µM.

`C=CCC1(OCc2ccccc2)C(=O)C(=O)OC1C1COC(C)(C)O1` (centres undefined): the EC50 is > 200 µM and the IC50 was > 200 µM. As to `COC1OC(COCc2ccc(Cl)cc2)C(OCc2ccc(Cl)cc2)C1O` (centres undefined), the outcome was inactive. Still for that read-out and setting: then `O=C1C2C(C(=O)N1c1ccccc1)C1(c3ccccc3)SC2(c2ccccc2)c2c(-c3ccccc3)sc(-c3ccccc3)c21` (centres undefined), with “inactive”. For `Cc1cc(C(=C2C=CC(=Nc3ccc(S(=O)(=O)O)cc3)C=C2)c2ccc(Nc3ccc(S(=O)(=O)O)cc3)cc2)cc(S(=O)(=O)O)c1N`, the EC50 was 30.2 µM and the half-maximal inhibitory concentration (IC50) came to 49 µM. Take `CC(C)=CCC/C(C)=C/CCC1(C)C=Cc2c(c3ccccc3oc2=O)O1` (centres undefined): the outcome was inactive. `C=CC1(c2ccc(Cl)c(Cl)c2)OCCO1`: the EC50 is > 200 µM and the half-maximal inhibitory concentration (IC50) was determined as 166 µM.

Take `CC(=O)OC1C(COS(=O)(=O)O)OC(O[C@H]2CC[C@@]3(C)C(=CC[C@@H]4C3CC[C@@]3(C)C4CC[C@@H]3C(C)=O)C2)C(OC(C)=O)C1OC(C)=O` (some centres undefined): the EC50 is > 31.6 µM and the half-maximal inhibitory concentration (IC50) was > 31.6 µM. Regarding `COc1ccc(C2OCC3OC(n4cc(C)c(=O)[nH]c4=O)C[C@H]3N2OC(C)=O)cc1` (some centres undefined), the outcome was inactive. As to `COc1ccc(C2S/C(=C\c3ccc([N+](=O)[O-])cc3)C(=O)N2NC(=O)Cc2ccccc2)cc1` (centres undefined), the EC50 is > 55 µM and the IC50 was > 55 µM. In the case of `O=C(Nc1ccc(S(=O)(=O)/N=c2\ncccn2C(=O)C(C(F)(F)F)C(F)(F)F)cc1)C(C(F)(F)F)C(F)(F)F`, the EC50 was > 200 µM and the concentration for half-maximal inhibition (IC50) was > 200 µM.

Take `N#Cc1c(O)cc(=O)n2c1[nH]c1ccccc12`: the EC50 is > 200 µM and the concentration for half-maximal inhibition (IC50) was 174 µM. The corresponding values for `COc1ccc2c(c1)CC[C@@H]1C2CC[C@]2(C)C(=C=CP(=O)(O)O)CCC12` (some centres undefined) are > 200 µM and > 200 µM.

For the compound `C=C1[C@@H]2CCC(C)(C)[C@H]1CCC(=O)[C@@H]2C(=O)OC`, the EC50 was > 269 µM and the IC50 amounted to 251 µM.

Take `COc1cc(C(=O)C/C(CCC(=O)Nc2ccc(Cl)cc2C)=N/NC(=O)C(N)=O)ccc1O`: the outcome was inactive. As to `OCC12C3C4C1C1C2C3C41CO` (centres undefined), the EC50 is > 1510 µM and the IC50 is > 1510 µM. Consider `O=C(O)c1c(O)ccc(N=Nc2ccc(/C=C/c3ccc(N=Nc4ccc(O)c(C(=O)O)c4O)cc3S(=O)(=O)O)c(S(=O)(=O)O)c2)c1O`, for which the EC50 is > 14.5 µM and the IC50 was > 14.5 µM. For `C=C(C)C(=O)NC(N)=NC#N`, the EC50 is > 1620 µM and the concentration for half-maximal inhibition (IC50) is 28.8 µM. For `COc1cc(Cl)c2c3c(c(C(C)=O)oc13)CCC2`, the outcome was inactive.

As for `O=C1CSc2ccncc2N1`, the EC50 was > 1510 µM and the IC50 was > 1510 µM. On to `CC(=O)OC1N(C(C)=O)C(SC23CC4CC(CC(C4)C2)C3)C(C)=CC1(C)OC(C)=O` (centres undefined), for which the EC50 was > 200 µM and the 50% inhibitory concentration (IC50) was determined as 126 µM. Taken in the same sequence, the figures for `O=c1c2c3c(sc2nc2n1N=C(c1ccc([N+](=O)[O-])cc1)CS2)CCCC3` were > 200 µM and > 200 µM. Taken in the same sequence, the figures for `O=CC(=C(I)I)c1ccccc1` were > 2 µM and 1.05 µM. Take `COc1ccc(N(CN2C(=O)CCC2C(=O)O)C(C)=O)cc1` (centres undefined): the outcome was inactive. The same measure, in the same setting: then `O=C(c1ccccc1)N1CCc2c([nH]c3ccccc23)C1`, with “inactive”; and `CN1CCC(=O)/C(=C/c2ccccc2)C1`, with “inactive”. Take `CCOC(=O)/C(F)=C/c1ccc([N+](=O)[O-])cc1`: the EC50 was > 41.7 µM and the half-maximal inhibitory concentration (IC50) is > 41.7 µM.

With `O=C(NCCN1CCOCC1)C1(O)N=C(c2ccccc2)c2ccsc2-n2cccc21` (centres undefined), the EC50 is > 200 µM and the IC50 came out at 123 µM. For the compound `CC1(C)S[C@@H]2[C@H](NC(=O)C3(N)CCCCC3)C(=O)N2[C@H]1C(=O)O`, the EC50 was > 200 µM and the concentration for half-maximal inhibition (IC50) was > 200 µM. On to `Cn1cc(NC(=O)Nc2cc(C(=O)Nc3cc(C(=O)Nc4cc(C(=O)Nc5ccc(S(=O)(=O)O)c6cc(S(=O)(=O)O)ccc56)n(C)c4)n(C)c3)n(C)c2)cc1C(=O)Nc1cc(C(=O)Nc2cc(C(=O)Nc3ccc(S(=O)(=O)O)c4cc(S(=O)(=O)O)ccc34)n(C)c2)n(C)c1`, for which the EC50 was 0.178 µM and the IC50 is 75.9 µM. As for `CCOC(=O)c1ccc(CSc2ccccc2C(=O)OCC)cc1`, the EC50 is > 3.02 µM and the IC50 was > 3.02 µM.

Take `CC1(C)OCC2(CO1)CSCCCSCC1(COC(C)(C)OC1)CSCCCSC2`: the EC50 was > 10.5 µM and the IC50 was > 10.5 µM.

In the case of `Cc1ccc(S(=O)(=O)OC2C3CC4C(=O)OC2C4C3)cc1` (centres undefined), the EC50 worked out at 126 µM and the IC50 was > 200 µM.

As to `COc1ccccc1C(=O)N(C)c1ccc(Cl)c(C(=O)OC(C)C)c1`, the result was inactive.

As for `COC(=O)CCC(=O)C(CC(=O)OC)C(=O)CCC(=O)NCCc1ccccc1` (centres undefined), the EC50 was > 27.5 µM and the IC50 was > 27.5 µM. On to `COc1ccc(N=Cc2ccc(N(CCC#N)S(=O)(=O)c3ccccc3)cc2)cc1`, for which the EC50 was > 162 µM and the IC50 was > 162 µM. For the compound `O=C1Oc2cc3c(c4cccc1c24)OCN(c1ccc(Cl)cc1)C3`, the EC50 was > 8.13 µM and the IC50 is > 8.13 µM. Take `c1ccc2sc(-c3c4ccccc4cc4c3ccc3ccccc34)cc2c1`: the EC50 was > 200 µM and the concentration for half-maximal inhibition (IC50) was > 200 µM. Take `COc1ccc(/C=C2/SC(=Nc3ccccc3)N(NC(=O)Cc3ccccc3)C2=O)c(OC)c1`: the EC50 is > 75.9 µM and the IC50 is > 75.9 µM. For the compound `Cc1ccc(-c2c(C#N)c(-c3ccccc3)c(C#N)c(=O)n2NS(=O)(=O)c2ccc(C)cc2)cc1`, the EC50 was > 200 µM and the concentration for half-maximal inhibition (IC50) stood at 57.5 µM. The corresponding values for `Cn1c(=S)[nH]c2c(Cl)cc(Cl)cc2c1=O` are > 200 µM and 138 µM. Taken in the same sequence, the figures for `O=C(c1ccccc1)c1cc(Cl)ccc1NCn1nnc2ccccc21` were > 200 µM and 35.5 µM.

Regarding `COc1ccc(S(=O)(=O)O)cc1N=N/C(=N/Nc1cc(S(=O)(=O)O)ccc1OC)C(=O)Nc1ccccc1`, the outcome was inactive. Take `O=C(O)c1ccccc1N=NNc1ccc(/C=C/c2ccc(N=NNc3ccccc3C(=O)O)cc2S(=O)(=O)O)c(S(=O)(=O)O)c1`: the EC50 was 6.31 µM and the IC50 was found to be 389 µM. On to `c1cc(N(CCn2cccn2)CCn2cccn2)cc(N(CCn2cccn2)CCn2cccn2)c1`, for which the outcome was inactive. `CCCCNC(=O)c1cc(NC(=O)c2ccc(C(=O)Nc3cc(C(=O)NCCCC)cc(C4N=CCN4)c3)cc2)cc(C2=NCCN2)c1` (centres undefined): the EC50 is 13.2 µM and the IC50 was > 100 µM.

As for `CC/C=C\C/C=C\C/C=C\CCCCCCCC(=O)OCC`, the EC50 was > 200 µM and the IC50 turned out to be 105 µM.

Take `C[C@]12CCC3[C@@H](CC[C@@H]4c5nonc5CC[C@]34C)C1C/C(=N/O)C2=O` (some centres undefined): the EC50 was > 105 µM and the IC50 was determined as 95.5 µM.

With `CCOC(=O)Nc1cc2c(c(N)n1)N=C(c1ccccc1)CN2`, the EC50 was > 0.17 µM and the IC50 was determined as 0.0316 µM.
